Active and inactive are the calls of the source.
Assays:
[1] = molecular target: Mitogen-activated protein kinase 1 (Homo sapiens, UniProt P28482); type: functional
[2] = molecular target: cAMP-dependent protein kinase catalytic subunit PRKX (Homo sapiens, UniProt P51817); type: functional
[3] = molecular target: G protein-coupled receptor kinase 5 (Homo sapiens, UniProt P34947); assay: Navigating the Kinome. Panel member name: GPRK5; type: functional
[4] = molecular target: MAP kinase-activated protein kinase 5 (Homo sapiens, UniProt Q8IW41); type: functional;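 also: measured as one member of a kinome panel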
[5] = molecular target: Serine/threonine-protein kinase pim-1 (Homo sapiens, UniProt P11309); type: functional
[6] = molecular target: Tyrosine-protein kinase HCK (Homo sapiens, UniProt P08631); assay: Navigating the Kinome. Panel member name: HCK; type: functional
[7] = molecular target: Tyrosine-protein kinase ABL1 (Homo sapiens, UniProt P00519); type: functional
[8] = molecular target: MAP kinase-activated protein kinase 2 (Homo sapiens, UniProt P49137); type: functional;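 also: measured as one member of a kinome-wide kinase panel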
[9] = molecular target: Calcium/calmodulin-dependent protein kinase type 1 (Homo sapiens, UniProt Q14012); type: functional
[10] = molecular target: Serine/threonine-protein kinase Nek4 (Homo sapiens, UniProt P51957); type: functional
[11] = molecular target: Cyclin-dependent kinase 7 (Homo sapiens, UniProt P50613); type: functional;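 also: value comes from a kinome-wide kinase profiling panel in which CDK7 is one member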
[12] = molecular target: Proto-oncogene tyrosine-protein kinase ROS (Homo sapiens, UniProt P08922); type: functional;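 also: ROS1 tested as one member of a kinome-wide kinase panel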
[13] = molecular target: Vascular endothelial growth factor receptor 3 (Homo sapiens, UniProt P35916); type: functional;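 also: value from a kinome-wide profiling panel, with FLT4 as the panel member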
[14] = molecular target: Platelet-derived growth factor receptor alpha (Homo sapiens, UniProt P16234); assay: Navigating the Kinome. Panel member name: PDGFRA; type: functional
[15] = molecular target: Rho-associated protein kinase 1 (Homo sapiens, UniProt Q13464); type: functional;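 also: measured within a broad kinome-wide panel profiling many kinases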
[16] = molecular target: Mitogen-activated protein kinase 10 (Homo sapiens, UniProt P53779); assay: Navigating the Kinome. Panel member name: MAPK10; type: functional
Insulin receptor = Insulin receptor (Homo sapiens, UniProt P06213); type: functional;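 also: insulin receptor kinase tested as one member of a kinome-wide kinase panel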
[17] = molecular target: ALK tyrosine kinase receptor (Homo sapiens, UniProt Q9UM73); type: functional;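 also: ALK tested as one member of a kinase panel screen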
[18] = molecular target: Vascular endothelial growth factor receptor 2 (Homo sapiens, UniProt P35968); type: functional
[19] = molecular target: 3-phosphoinositide-dependent protein kinase 1 (Homo sapiens, UniProt O15530); type: functional;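 also: value comes from the Navigating the Kinome panel, PDPK1 member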
Ephrin type-A receptor 2 = Ephrin type-A receptor 2 (Homo sapiens, UniProt P29317); type: functional;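 also: EPHA2 tested as one member of a kinome-wide kinase panel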
[20] = molecular target: Proto-oncogene tyrosine-protein kinase Src (Homo sapiens, UniProt P12931); type: functional;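 also: SRC entry within a kinome-wide kinase profiling panel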
[21] = molecular target: Dual specificity tyrosine-phosphorylation-regulated kinase 3 (Homo sapiens, UniProt O43781); type: functional;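 also: measured as one member of a broad kinase panel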
[22] = molecular target: T1, Sentrin-specific protease 6 (Homo sapiens, UniProt Q9GZR1); type: functional;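 also: Luminescence-based dose-response confirmatory assay of SENP6 inhibition, following up an ultra-high-throughput screen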
T1 sequence (Q9GZR1 whole entry): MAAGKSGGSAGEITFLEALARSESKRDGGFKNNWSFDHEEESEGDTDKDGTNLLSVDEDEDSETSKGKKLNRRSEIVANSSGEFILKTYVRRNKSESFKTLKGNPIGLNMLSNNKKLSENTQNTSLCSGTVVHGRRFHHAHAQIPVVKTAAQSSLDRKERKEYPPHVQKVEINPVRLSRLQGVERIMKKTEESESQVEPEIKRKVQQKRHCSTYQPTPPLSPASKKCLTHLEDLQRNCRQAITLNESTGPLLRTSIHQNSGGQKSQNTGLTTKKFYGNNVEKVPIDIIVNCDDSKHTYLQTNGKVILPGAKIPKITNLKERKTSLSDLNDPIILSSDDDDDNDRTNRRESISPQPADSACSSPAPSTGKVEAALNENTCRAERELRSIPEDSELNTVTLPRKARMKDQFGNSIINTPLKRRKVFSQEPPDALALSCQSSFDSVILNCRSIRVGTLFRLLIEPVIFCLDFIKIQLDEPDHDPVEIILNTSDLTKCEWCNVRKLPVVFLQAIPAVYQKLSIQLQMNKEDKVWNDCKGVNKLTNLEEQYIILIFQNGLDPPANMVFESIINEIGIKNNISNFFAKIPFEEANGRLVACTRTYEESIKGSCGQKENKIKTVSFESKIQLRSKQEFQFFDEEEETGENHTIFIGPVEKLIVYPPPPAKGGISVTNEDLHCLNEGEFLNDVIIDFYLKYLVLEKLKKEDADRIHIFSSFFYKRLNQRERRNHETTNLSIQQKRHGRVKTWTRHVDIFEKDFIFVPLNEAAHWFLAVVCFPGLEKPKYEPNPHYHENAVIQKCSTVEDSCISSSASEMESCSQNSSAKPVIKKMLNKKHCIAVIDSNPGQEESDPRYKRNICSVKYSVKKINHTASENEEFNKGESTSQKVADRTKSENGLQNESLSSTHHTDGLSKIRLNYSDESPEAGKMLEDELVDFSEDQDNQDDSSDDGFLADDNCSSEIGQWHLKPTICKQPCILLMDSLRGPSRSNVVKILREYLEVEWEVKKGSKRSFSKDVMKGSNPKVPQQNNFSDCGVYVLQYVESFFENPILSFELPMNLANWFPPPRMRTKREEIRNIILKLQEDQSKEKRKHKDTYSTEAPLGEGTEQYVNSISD

cells = type: functional, cell-based
[23] = molecular target: T2, Sentrin-specific protease 8 (Homo sapiens, UniProt Q96LD8); type: functional;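 also: luminescence read-out of SENP8 inhibition, dose-response confirmation following an ultra-high-throughput screen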
T2 sequence (Q96LD8 whole entry): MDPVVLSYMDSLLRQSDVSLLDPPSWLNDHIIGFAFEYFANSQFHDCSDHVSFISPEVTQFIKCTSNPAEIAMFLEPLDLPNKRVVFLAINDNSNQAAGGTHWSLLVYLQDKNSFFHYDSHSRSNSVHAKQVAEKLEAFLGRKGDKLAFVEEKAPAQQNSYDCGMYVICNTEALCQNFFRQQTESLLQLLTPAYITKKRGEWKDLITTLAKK

Vero = Vero cell cytotoxicity, cytotoxicity control for flavivirus capping enzyme inhibitors (AID 588742); type: functional; details: Chlorocebus sabaeus
[24] = Counterscreen for AddAB inhibitors: absorbance-based bacterial cell-based high throughput dose response assay for inhibitors of bacterial viability. [Related pubchem assays (depositor defined):AID435030, AID449728, AID449731, AID488942, AID488955, AID488956]; type: functional
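For EC50 in this document: proteasome chymotrypsin-like activity measured in U2OS cells; potency is for inhibition of proteasome activity.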

Chain of MAP kinase-activated protein kinase 5 (Q8IW41 whole entry): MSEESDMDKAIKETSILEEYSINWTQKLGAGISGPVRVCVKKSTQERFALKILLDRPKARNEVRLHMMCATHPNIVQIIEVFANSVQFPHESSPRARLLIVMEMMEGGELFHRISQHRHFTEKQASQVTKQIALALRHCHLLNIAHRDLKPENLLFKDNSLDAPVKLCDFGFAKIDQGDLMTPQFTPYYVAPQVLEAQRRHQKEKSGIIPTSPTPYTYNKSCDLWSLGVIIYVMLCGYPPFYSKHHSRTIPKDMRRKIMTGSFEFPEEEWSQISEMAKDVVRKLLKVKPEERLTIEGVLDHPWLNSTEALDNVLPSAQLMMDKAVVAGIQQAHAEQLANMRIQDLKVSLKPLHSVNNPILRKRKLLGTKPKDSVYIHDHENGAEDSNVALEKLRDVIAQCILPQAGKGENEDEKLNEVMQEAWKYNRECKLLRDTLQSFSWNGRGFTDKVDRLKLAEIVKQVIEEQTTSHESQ
Chain of ALK tyrosine kinase receptor (Q9UM73 whole entry): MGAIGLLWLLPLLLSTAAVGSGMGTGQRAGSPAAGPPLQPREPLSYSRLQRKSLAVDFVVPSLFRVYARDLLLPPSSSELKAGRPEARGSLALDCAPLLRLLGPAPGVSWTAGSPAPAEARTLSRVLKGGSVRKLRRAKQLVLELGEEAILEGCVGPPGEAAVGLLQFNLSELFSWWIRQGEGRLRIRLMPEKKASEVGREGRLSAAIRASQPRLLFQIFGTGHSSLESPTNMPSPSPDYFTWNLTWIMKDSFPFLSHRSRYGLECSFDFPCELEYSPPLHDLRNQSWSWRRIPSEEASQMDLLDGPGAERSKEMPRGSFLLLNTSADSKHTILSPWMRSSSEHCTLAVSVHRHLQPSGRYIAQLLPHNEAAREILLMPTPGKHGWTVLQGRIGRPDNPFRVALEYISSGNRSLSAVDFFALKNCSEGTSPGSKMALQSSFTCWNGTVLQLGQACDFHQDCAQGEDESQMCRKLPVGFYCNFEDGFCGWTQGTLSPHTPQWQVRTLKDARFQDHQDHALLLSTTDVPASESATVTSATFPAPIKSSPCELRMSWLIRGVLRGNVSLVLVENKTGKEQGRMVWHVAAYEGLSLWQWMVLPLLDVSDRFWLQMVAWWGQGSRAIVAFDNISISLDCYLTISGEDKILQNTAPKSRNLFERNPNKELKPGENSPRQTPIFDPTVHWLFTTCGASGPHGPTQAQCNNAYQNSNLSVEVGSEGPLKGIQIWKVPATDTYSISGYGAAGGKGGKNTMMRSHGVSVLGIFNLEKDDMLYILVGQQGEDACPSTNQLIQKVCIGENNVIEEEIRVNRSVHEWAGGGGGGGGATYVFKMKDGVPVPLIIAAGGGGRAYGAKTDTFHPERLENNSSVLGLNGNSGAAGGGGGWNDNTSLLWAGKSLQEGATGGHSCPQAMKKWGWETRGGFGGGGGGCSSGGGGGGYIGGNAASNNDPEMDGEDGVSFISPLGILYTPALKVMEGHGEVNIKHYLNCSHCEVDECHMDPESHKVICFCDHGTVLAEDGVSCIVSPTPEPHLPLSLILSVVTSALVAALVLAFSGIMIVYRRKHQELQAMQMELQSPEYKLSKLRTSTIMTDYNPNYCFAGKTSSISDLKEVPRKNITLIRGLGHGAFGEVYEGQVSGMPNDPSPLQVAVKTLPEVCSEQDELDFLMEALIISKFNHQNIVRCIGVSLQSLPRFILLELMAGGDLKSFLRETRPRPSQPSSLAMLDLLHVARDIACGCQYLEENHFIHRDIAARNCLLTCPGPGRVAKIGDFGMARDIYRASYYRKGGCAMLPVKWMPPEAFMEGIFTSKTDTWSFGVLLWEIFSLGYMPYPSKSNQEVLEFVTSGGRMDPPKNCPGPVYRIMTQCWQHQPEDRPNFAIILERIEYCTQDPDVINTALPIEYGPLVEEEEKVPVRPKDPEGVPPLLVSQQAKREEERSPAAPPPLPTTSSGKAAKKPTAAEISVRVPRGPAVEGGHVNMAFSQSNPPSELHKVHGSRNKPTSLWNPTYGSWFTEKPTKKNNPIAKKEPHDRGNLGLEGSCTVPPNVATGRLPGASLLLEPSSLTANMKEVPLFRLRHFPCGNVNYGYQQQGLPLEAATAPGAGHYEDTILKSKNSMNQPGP
Chain of MAP kinase-activated protein kinase 2 (P49137 whole entry): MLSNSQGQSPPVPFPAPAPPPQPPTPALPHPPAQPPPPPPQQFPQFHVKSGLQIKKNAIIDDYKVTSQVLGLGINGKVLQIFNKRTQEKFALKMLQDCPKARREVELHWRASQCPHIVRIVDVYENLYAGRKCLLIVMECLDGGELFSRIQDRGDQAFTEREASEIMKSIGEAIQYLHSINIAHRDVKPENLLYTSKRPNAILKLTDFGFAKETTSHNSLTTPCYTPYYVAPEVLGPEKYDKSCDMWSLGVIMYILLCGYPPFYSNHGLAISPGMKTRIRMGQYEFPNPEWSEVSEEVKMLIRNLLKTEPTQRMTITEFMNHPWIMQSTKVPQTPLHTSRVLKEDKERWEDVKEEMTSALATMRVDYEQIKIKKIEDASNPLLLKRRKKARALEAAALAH
Chain of Proto-oncogene tyrosine-protein kinase ROS (P08922 whole entry): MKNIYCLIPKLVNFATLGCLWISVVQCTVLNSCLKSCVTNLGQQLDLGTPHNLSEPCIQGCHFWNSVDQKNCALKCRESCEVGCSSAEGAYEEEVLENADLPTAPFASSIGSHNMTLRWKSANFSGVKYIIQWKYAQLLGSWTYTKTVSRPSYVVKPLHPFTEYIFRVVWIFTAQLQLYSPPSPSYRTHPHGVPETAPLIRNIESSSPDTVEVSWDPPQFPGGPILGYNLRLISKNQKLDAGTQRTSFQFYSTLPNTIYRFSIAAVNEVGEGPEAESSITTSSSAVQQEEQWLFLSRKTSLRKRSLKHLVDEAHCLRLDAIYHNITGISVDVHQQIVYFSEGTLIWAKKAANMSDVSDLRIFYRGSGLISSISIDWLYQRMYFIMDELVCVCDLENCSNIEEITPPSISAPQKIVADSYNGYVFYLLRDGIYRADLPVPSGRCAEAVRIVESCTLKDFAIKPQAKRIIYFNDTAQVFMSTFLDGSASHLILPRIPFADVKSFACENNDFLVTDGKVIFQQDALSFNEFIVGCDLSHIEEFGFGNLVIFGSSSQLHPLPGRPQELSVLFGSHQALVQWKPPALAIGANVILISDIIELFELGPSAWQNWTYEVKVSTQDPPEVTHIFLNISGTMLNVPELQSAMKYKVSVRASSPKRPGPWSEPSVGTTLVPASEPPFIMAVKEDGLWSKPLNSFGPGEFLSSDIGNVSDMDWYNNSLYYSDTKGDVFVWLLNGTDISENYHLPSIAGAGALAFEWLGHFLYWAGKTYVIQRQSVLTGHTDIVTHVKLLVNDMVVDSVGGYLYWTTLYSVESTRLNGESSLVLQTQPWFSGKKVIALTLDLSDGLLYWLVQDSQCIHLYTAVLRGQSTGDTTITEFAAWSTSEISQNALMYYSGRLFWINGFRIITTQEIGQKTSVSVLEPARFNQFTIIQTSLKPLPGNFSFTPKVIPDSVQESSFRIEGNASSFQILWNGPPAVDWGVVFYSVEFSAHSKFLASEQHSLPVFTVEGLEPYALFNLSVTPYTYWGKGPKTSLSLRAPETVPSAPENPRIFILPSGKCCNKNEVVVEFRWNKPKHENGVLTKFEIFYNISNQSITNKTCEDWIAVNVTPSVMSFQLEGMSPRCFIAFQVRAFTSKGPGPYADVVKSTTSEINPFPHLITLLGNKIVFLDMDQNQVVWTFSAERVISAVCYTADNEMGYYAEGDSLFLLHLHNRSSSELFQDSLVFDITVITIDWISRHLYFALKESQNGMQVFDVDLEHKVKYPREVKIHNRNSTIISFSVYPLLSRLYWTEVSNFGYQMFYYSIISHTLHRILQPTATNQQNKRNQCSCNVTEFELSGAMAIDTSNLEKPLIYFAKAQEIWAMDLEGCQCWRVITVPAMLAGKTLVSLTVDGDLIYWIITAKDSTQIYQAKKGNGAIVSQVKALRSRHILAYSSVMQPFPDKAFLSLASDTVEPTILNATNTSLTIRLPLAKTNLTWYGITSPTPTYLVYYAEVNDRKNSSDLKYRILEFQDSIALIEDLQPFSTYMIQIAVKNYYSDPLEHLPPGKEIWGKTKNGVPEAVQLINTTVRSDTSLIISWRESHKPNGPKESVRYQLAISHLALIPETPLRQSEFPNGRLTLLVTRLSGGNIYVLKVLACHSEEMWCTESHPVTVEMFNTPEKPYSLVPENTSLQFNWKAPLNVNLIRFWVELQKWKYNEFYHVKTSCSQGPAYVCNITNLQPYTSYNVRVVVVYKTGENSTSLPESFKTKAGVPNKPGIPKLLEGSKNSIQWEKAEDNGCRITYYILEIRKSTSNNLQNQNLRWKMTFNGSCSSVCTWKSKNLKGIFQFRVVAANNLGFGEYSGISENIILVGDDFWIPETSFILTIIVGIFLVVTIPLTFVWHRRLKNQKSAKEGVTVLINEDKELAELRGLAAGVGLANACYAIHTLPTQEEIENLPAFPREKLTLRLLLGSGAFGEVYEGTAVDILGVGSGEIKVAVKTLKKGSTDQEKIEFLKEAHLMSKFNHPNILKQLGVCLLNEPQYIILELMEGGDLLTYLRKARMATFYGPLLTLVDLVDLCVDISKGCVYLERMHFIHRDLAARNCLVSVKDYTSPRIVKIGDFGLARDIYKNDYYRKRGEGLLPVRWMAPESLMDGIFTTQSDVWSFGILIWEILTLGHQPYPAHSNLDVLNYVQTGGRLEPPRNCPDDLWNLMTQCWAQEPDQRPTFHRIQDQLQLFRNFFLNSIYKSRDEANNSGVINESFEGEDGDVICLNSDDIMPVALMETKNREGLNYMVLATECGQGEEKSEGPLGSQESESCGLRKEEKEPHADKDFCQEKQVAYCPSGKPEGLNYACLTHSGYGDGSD

OC1CCC(Nc2cc(Cl)nc(-c3c[nH]c4ncccc34)n2)CC1 (stereo not given)
active: Ki [2] 398 nM | Ki [5] 1000 nM | Ki [8] 1260 nM | Ki [10] 794 nM | Ki [12] 794 nM | Ki [13] 63.1 nM | Ki [15] 31.6 nM | Ki [18] 1260 nM | Ki [19] 50.1 nM | Ki [21] 50.1 nM
inactive: Ki [1] > 5010 nM | Ki [3] > 3980 nM | Ki [4] > 1580 nM | Ki [6] > 3160 nM | Ki [7] > 631 nM | Ki [9] > 1580 nM | Ki [11] > 6310 nM | Ki [14] > 1580 nM | Ki [16] > 3160 nM | Ki (Insulin receptor) > 3980 nM | Ki [17] > 2510 nM | Ki (Ephrin type-A receptor 2) > 3160 nM | Ki [20] > 2000 nM

CCOC(=O)c1c(NS(=O)(=O)c2ccccc2)n(CCCOC)c2nc3ccccc3nc12
> 350000 nM (not active): EC50 (cells)
active: IC50 [22] 596 nM | IC50 [23] 1910 nM

COCC/N=c1\scc(-c2cccs2)n1/N=C/c1ccc(O)c(O)c1O
inactive: IC50 [24] > 119000 nM
active: CC50 (Vero) 22800 nM

O=C(COC(=O)c1ccc([N+](=O)[O-])s1)NCCc1ccccc1
active: IC50 [22] 4790 nM | IC50 [23] 4740 nM
